According to patent US20120029187A1, “HALOALKYLSULFONANILIDE DERIVATIVE” (Nissan Chemical Industries, Ltd., priority 2009, published 2012):

Tests used:
Type in all cases: in vivo
water foxtail [1] = test: Test Example 3: herbicidal effects in soil treatment; details: dose 6.3 g/a
Outline: (§1)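 Seeds were sown in sterilized diluvial soil and covered with about 1.5 cm of soil. Compounds, formulated as emulsifiable concentrates and diluted with water, were sprayed evenly over the soil surface at set doses in g/a. Herbicidal effect was scored on a rating scale three weeks later.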

common chickweed [2] = test: as above; details: dose 6.3 g/a
Outline: as §1

posumbu knotweed [3] = test: as above; details: dose 6.3 g/a
Outline: as §1

giant foxtail [4] = test: as above; details: dose 6.3 g/a
Outline: as §1

large crabgrass [5] = test: as above; details: dose 6.3 g/a
Outline: as §1

velvetleaf [6] = test: as above; details: dose 6.3 g/a
Outline: as §1

wild oat [7] = test: as above; details: dose 6.3 g/a
Outline: as §1

Italian ryegrass [8] = test: as above; details: dose 6.3 g/a
Outline: as §1

common lambsquater [9] = test: as above; details: dose 6.3 g/a
Outline: as §1

common ragweed [10] = test: as above; details: dose 6.3 g/a
Outline: as §1

barnyardgrass [11] = test: as above; details: dose 6.3 g/a
Outline: as §1

bulrush = test: Test Example 2: herbicidal effects during the vegetation period under submerged conditions; details: treatment during the vegetation period under submerged conditions; dose 2.52 g/a
Outline: (§2)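 Barnyardgrass, bulrush and ducksalad were co-sown in alluvial soil flooded to 4 cm and grown in a greenhouse at 25 to 30° C. At the 1- or 2-leaf stage, water-diluted emulsifiable concentrates went onto the water surface at set doses (g/a). Herbicidal effect was scored three weeks later on a graded scale.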

barnyardgrass [12] = test: as above; details: treatment during the vegetation period under submerged conditions; dose 2.52 g/a
Outline: as §2

ducksalad = test: as above; details: treatment during the vegetation period under submerged conditions; dose 2.52 g/a
Outline: as §2

water foxtail [13] = test: Test Example 4: herbicidal effect in foliage treatment; details: dose 6.3 g/a, three weeks after application
Outline: (§3)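 Post-emergence foliar spray of water-diluted emulsifiable concentrate at predetermined doses (g per are), applied to plants 14 days after sowing in sterile diluvial soil (greenhouse, 25 to 30° C). Visual scale rating of effect taken 3 weeks later.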

beadstraw = test: as above; details: dose 6.3 g/a, three weeks after application
Outline: as §3

common chickweed [14] = test: as above; details: dose 6.3 g/a, three weeks after application
Outline: as §3

posumbu knotweed [15] = test: as above; details: dose 6.3 g/a, three weeks after application
Outline: as §3

giant foxtail [16] = test: as above; details: dose 6.3 g/a, three weeks after application
Outline: as §3

large crabgrass [17] = test: as above; details: dose 6.3 g/a, three weeks after application
Outline: as §3

velvetleaf [18] = test: as above; details: dose 6.3 g/a, three weeks after application
Outline: as §3

redroot pigweed = test: as above; details: dose 6.3 g/a, three weeks after application
Outline: as §3

wild oat [19] = test: as above; details: dose 6.3 g/a, three weeks after application
Outline: as §3

Italian ryegrass [20] = test: as above; details: dose 6.3 g/a, three weeks after application
Outline: as §3

common lambsquater [21] = test: as above; details: dose 6.3 g/a, three weeks after application
Outline: as §3

common ragweed [22] = test: as above; details: dose 6.3 g/a, three weeks after application
Outline: as §3

barnyardgrass [23] = test: as above; details: dose 6.3 g/a, three weeks after application
Outline: as §3

barnyardgrass [24] = test: Comparative Example 2: herbicidal effects on barnyardgrass during the vegetation period under submerged conditions; details: applied to water surface at the 2- or 2.5-leaf stage, three weeks after application
Procedure: Comparative Example 2 Test on the Herbicidal Effects on Barnyardgrass During the Vegetation Period Under Submerged Conditions Alluvial soil was put in 1/30000-are styrol cups and admixed with water so that it was submerged at a depth of 4 cm. In each cup, seeds of barnyardgrass were sown, and the cups were placed in a greenhouse at 25 to 30° C. to grow the plants. When the barnyardgrass reached the 2- or 2.5-leaf stage, emulsifiable concentrates containing compounds of the present invention and the comparative compounds formulated in accordance with Formulation Example 2 were applied to the water surfaces at predetermined doses after diluted with water. Three weeks after the application, the herbicidal effects were determined on the same evaluation scale as in Test Example 1. The symbol A in the table is the same as defined above.

CC(C)COC(=O)N(c1ccccc1CN1COCCC1=O)S(=O)(=O)C(F)(F)F [II-3]
G: water foxtail, herbicidal effect (evaluation scale 0-5) (water foxtail [1]): 5 (mortality of 90% or above (nearly complete death)) | N: common chickweed, herbicidal effect (evaluation scale 0-5) (common chickweed [2]): 3 (mortality of at least 40% and less than 70%) | M: posumbu knotweed, herbicidal effect (evaluation scale 0-5) (posumbu knotweed [3]): 1 (mortality of at least 5% and less than 20%) | E: giant foxtail, herbicidal effect (evaluation scale 0-5) (giant foxtail [4]): 3 (mortality of at least 40% and less than 70%) | D: large crabgrass, herbicidal effect (evaluation scale 0-5) (large crabgrass [5]): 5 (mortality of 90% or above (nearly complete death)) | I: velvetleaf, herbicidal effect (evaluation scale 0-5) (velvetleaf [6]): 4 (mortality of at least 70% and less than 90%) | F: wild oat, herbicidal effect (evaluation scale 0-5) (wild oat [7]): 0 (mortality of less than 5% (almost ineffective)) | H: Italian ryegrass, herbicidal effect (evaluation scale 0-5) (Italian ryegrass [8]): 4 (mortality of at least 70% and less than 90%) | L: common lambsquater, herbicidal effect (evaluation scale 0-5) (common lambsquater [9]): 1 (mortality of at least 5% and less than 20%) | J: common ragweed, herbicidal effect (evaluation scale 0-5) (common ragweed [10]): 3 (mortality of at least 40% and less than 70%) | A: barnyardgrass, herbicidal effect (evaluation scale 0-5) (barnyardgrass [11]): 5 (mortality of 90% or above (nearly complete death)) | B: bulrush, herbicidal effect (evaluation scale 0-5) (bulrush): 5 (mortality of 90% or above (nearly complete death)) | A: barnyardgrass, herbicidal effect (evaluation scale 0-5) (barnyardgrass [12]): 5 (mortality of 90% or above (nearly complete death)) | C: ducksalad, herbicidal effect (evaluation scale 0-5) (ducksalad): 4 (mortality of at least 70% and less than 90%) | G: water foxtail, herbicidal effect (water foxtail [13]): 5 (mortality of 90% or above (nearly complete death)) | O: beadstraw, herbicidal effect (beadstraw): 3 (mortality of at least 40% and less than 70%) | N: common chickweed, herbicidal effect (common chickweed [14]): 3 (mortality of at least 40% and less than 70%) | M: posumbu knotweed, herbicidal effect (posumbu knotweed [15]): 0 (mortality of less than 5% (almost ineffective)) | E: giant foxtail, herbicidal effect (giant foxtail [16]): 5 (mortality of 90% or above (nearly complete death)) | D: large crabgrass, herbicidal effect (large crabgrass [17]): 5 (mortality of 90% or above (nearly complete death)) | I: velvetleaf, herbicidal effect (velvetleaf [18]): 5 (mortality of 90% or above (nearly complete death)) | K: redroot pigweed, herbicidal effect (redroot pigweed): 0 (mortality of less than 5% (almost ineffective)) | F: wild oat, herbicidal effect (wild oat [19]): 0 (mortality of less than 5% (almost ineffective)) | H: Italian ryegrass, herbicidal effect (Italian ryegrass [20]): 3 (mortality of at least 40% and less than 70%) | L: common lambsquater, herbicidal effect (common lambsquater [21]): 4 (mortality of at least 70% and less than 90%) | J: common ragweed, herbicidal effect (common ragweed [22]): 2 (mortality of at least 20% and less than 40%) | A: barnyardgrass, herbicidal effect (barnyardgrass [23]): 5 (mortality of 90% or above (nearly complete death)) | herbicidal effect, A (barnyardgrass) (barnyardgrass [24]; dose 0.16 g/a): 0 (mortality of less than 5% (almost ineffective)) | herbicidal effect, A (barnyardgrass) (barnyardgrass [24]; dose 0.64 g/a): 3 (mortality of at least 40% and less than 70%) | herbicidal effect, A (barnyardgrass) (barnyardgrass [24]; dose 2.52 g/a): 5 (mortality of 90% or above (nearly complete death))
